Source: ChEMBL document CHEMBL1201862, “PubChem BioAssay data set” (2004)
Values belong to the compound of their own block, whether it stands above or below them. Activity calls are given as the source filed them.

Columns and labels:
Kallikrein-7 = Kallikrein-7 (Homo sapiens, UniProt P49862); experiment: Fluorescence Intensity-based biochemical primary high throughput dose response assay to identify activators of kallikrein-7 (K7) zymogen.
Protein skinhead-1 = molecular target: T1, Protein skinhead-1 (Caenorhabditis elegans, UniProt P34707); format: functional
T1 sequence (P34707 whole entry): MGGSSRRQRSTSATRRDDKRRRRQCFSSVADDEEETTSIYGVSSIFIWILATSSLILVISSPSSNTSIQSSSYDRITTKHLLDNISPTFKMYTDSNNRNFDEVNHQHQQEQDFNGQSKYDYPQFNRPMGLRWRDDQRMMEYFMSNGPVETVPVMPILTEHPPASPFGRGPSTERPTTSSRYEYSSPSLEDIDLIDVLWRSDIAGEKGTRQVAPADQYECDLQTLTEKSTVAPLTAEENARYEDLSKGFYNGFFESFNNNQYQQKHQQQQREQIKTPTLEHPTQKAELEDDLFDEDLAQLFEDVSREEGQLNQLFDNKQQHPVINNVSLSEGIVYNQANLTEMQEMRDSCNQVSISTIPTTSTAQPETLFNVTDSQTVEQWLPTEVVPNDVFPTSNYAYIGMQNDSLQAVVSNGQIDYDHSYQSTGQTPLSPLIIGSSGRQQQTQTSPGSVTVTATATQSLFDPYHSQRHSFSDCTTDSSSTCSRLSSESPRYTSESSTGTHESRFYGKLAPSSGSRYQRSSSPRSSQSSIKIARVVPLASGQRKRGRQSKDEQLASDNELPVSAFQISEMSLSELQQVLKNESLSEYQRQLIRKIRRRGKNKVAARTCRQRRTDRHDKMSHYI

Caspase-6 = Caspase-6 (Homo sapiens, UniProt P55212); experiment: inhibition of CASP6 peptide cleavage – biochemical, VEID-R110 fluorescence, cherry-pick, dose response (AID 720632)
Caspase-6, sequence (P55212 24-179 limits assumed): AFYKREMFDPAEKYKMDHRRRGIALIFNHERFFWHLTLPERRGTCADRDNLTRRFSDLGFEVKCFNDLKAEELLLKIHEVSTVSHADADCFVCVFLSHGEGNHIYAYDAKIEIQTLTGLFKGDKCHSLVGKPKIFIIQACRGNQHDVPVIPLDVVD
Caspase-6, sequence (P55212 194-293 limits assumed): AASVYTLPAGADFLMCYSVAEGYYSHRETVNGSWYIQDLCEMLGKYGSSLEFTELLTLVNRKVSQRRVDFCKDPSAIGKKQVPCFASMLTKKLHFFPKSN

Caspase-7 = Caspase-7 (Homo sapiens, UniProt P55210); experiment: caspase-7 enzyme inhibition, selectivity check – biochemical, DEVD-R110 fluorescence, cherry-pick, selectivity assay for caspase-6 inhibitor project, dose response (AID 743295); format: functional
Caspase-7, sequence (P55210 24-198 limits assumed): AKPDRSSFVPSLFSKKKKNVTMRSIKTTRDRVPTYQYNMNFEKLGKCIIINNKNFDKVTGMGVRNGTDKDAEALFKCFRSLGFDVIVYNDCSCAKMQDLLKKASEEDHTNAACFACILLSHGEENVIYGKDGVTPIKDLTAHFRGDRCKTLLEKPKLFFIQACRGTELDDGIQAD
Caspase-7, sequence (P55210 207-303 limits assumed): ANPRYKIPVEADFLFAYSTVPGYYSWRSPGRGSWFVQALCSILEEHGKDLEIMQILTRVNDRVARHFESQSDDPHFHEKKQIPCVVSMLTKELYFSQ

[1] = molecular target: T2, Histone-lysine N-methyltransferase NSD2 (Homo sapiens, UniProt O96028); format: biochemical
T2 sequence (O96028 whole entry): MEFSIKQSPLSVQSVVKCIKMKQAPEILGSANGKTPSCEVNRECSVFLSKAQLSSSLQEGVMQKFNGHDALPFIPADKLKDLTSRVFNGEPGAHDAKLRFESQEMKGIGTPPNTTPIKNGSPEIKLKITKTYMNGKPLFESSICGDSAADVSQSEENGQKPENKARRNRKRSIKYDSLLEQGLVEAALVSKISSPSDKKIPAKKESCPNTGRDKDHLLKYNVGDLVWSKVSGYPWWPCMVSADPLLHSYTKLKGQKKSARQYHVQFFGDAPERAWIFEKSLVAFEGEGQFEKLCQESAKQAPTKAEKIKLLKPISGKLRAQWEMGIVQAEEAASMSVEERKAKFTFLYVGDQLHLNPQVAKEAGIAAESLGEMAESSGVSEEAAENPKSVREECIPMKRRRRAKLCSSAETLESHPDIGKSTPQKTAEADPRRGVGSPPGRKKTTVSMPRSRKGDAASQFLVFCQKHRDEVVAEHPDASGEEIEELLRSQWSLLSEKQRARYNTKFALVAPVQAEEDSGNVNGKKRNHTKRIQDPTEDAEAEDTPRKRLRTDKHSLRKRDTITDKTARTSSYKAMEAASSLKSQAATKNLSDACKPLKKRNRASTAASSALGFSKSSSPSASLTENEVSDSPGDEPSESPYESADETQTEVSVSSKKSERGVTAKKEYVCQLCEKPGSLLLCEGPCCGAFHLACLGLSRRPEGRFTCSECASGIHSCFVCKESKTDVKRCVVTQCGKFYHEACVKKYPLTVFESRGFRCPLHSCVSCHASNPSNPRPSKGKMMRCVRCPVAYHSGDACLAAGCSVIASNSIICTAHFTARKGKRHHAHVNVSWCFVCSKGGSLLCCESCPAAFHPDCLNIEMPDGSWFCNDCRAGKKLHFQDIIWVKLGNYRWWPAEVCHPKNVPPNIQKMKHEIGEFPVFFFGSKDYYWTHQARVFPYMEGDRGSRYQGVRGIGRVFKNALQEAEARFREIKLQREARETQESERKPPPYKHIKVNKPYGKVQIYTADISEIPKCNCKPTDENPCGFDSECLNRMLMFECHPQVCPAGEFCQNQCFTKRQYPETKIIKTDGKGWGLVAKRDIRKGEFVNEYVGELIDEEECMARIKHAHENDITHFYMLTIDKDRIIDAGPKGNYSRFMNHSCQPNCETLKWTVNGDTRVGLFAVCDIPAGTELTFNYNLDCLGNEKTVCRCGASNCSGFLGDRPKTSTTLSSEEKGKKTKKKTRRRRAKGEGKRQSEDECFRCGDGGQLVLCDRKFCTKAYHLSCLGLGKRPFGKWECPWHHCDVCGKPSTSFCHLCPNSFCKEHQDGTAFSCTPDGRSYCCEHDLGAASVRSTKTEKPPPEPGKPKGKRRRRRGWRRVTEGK

[2] = molecular target: T3, DNA repair protein RAD52 homolog (Homo sapiens, UniProt P43351); format: functional, biochemical
T3 sequence (P43351 whole entry): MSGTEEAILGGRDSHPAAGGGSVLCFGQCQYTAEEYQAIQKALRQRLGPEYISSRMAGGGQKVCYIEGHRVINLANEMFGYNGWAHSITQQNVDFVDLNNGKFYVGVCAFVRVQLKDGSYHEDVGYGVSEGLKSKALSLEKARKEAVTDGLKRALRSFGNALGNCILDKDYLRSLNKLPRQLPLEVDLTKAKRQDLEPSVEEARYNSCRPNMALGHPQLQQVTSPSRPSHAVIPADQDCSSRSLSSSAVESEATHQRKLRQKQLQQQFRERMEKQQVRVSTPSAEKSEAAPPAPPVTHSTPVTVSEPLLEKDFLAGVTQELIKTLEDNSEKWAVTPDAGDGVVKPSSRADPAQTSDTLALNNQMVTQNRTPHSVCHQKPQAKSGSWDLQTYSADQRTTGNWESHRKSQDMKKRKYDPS

[3] = MITF Measured in Cell-Based System Using Plate Reader - 2084-01_Inhibitor_Dose_DryPowder_Activity_Set6.; format: functional
[4] = growth inhibition of SK-MEL-5 melanoma cells – cell-based, CellTiter-Glo luminescence, dry powder, set 8, orthogonal assay for MITF inhibitor project, dose response (AID 651586); format: functional
[5] = inhibitors of TRPM1-promoter reporter in SK-MEL-5 – cell-based, luciferase, dry powder, set 9, MITF inhibitor project, dose response (AID 651588); format: functional
[6] = cytotoxicity in MITF-independent A375 cells – cell-based, CellTiter-Glo luminescence, dry powder, set 4, counter-screen for MITF inhibitor project, dose response (AID 624364); format: functional; settings: A-375;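 also: A375 melanoma cells are MITF independent so this is a counter screen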
[7] = MITF Measured in Cell-Based System Using Plate Reader - 2084-01_Inhibitor_Dose_DryPowder_Activity_Set7.; format: functional
[8] = MITF Orthogonal Assay: SK-MEL-5 CTG Assay Measured in Cell-Based System Using Plate Reader - 2084-02_Inhibitor_Dose_DryPowder_Activity_Set5.; format: functional
[9] = glucagon-like peptide-1 release potency in STC-1, concentration-response, half-maximal inhibitory concentration in the STC-1 line (AID 1117345); format: functional, cell-based
[10] = IC50 of insulin release inhibition, rat insulinoma INS-1E line, 5 mM glucose, cell-based (AID 1117331); format: functional
[11] = Potency on glucagon-like peptide 1 release, dose-response in NCI-H716 cell line, half maximal inhibitory concentration (AID 1117344); format: functional, cell-based
[12] = viability loss in HepG2 liver cells – cell-based, ATP luminescence, cherry-pick, set 6, cytotoxicity control, dose response (AID 1053125); format: functional
[13] = toxicity to human hepatoma HepG2 cells – cell-based, cherry-picked samples, cytotoxicity control, dose response (AID 1159577); format: functional
[14] = P. falciparum Dd2 growth inhibitors, dose response, SYBR Green, cherry-picked samples (AID 1159567); format: functional, cell-based
[15] = antimalarial activity against Dd2 parasites – SYBR Green fluorescence, erythrocytes, dry powder, set 2, dose response (AID 1159574); format: functional, cell-based

Kallikrein-7, sequence (P49862 whole entry): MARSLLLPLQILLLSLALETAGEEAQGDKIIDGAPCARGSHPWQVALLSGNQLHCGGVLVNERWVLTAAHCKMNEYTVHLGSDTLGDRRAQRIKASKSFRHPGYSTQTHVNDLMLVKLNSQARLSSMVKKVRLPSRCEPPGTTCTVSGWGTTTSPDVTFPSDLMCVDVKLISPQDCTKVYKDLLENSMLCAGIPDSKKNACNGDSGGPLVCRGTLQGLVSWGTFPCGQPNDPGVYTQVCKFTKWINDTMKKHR

EC50 (Kallikrein-7): > 7.72 µM (active)
Compound: Fc1ccc(-c2nc3cnccn3c2NC2CCCC2)cc1

IC50 (Protein skinhead-1): > 100 µM (inactive)
AC50 (Caspase-6): 4.77 µM (active)
AC50 (Caspase-7): 24.9 µM (active)
AC50 [1]: 2.52 µM (active)
AC50 [2]: 5.43 µM (active)
Compound: COc1cc(NCCCCC(C)N)c2nccc(C)c2c1 (centres undefined)

Compound: NC1=C(NS(=O)(=O)c2ccc(Br)s2)C(=O)c2ccccc2C1=O
AC50 [3]: > 70 µM (inactive)
AC50 [4]: > 70 µM (inactive)
AC50 [5]: > 70 µM (inactive)
AC50 [6]: > 70 µM (inactive)
AC50 [7]: 65.8 µM (active)
AC50 [8]: > 70 µM (inactive)

Compound: Cn1cc([S+](C)[O-])c(=O)c2ccc(F)cc21 (centres undefined) [FLOSEQUINAN]
IC50 [9]: > 40 µM (inactive)
IC50 [10]: > 33.3 µM (inactive)
IC50 [11]: > 40 µM (inactive)

Compound: CCOc1ccc2nc(NCCCNS(=O)(=O)c3ccc(F)cc3)c(C#N)cc2c1
AC50 [12]: > 52 µM (inactive)

Compound: Cc1cccc(S(=O)(=O)N2CCCCN3[C@@H](CO)[C@@H](c4ccc(-c5ccccc5)cc4)[C@@H]3C2)c1
AC50 [13]: 19.8 µM (active)
AC50 [14]: 1.26 µM (active)

Compound: COc1cccc(C#Cc2ccc([C@@H]3[C@H](CO)N4C(=O)CN(C(=O)Cc5ccccc5)C[C@@H]34)cc2)c1
AC50 [15]: > 20 µM (inactive)
